# Experimental data: patent US20150056166A1, “FLAVONE DERIVATIVES AND THEIR USE” (Twincore GmbH, priority 2012, published 2015)
# Where two headings read alike, the source gives them in different places.
# Assays:
# J4 (GT1b) = experiment: Luciferase infection assay, chimeric reporter virus J4/1b/R2a in Huh7-Lunet/CD81 cells; format: cell-based, HCV; settings: Hepatitis C virus, Huh-7, 72 h
# S52 (GT3a) = experiment: Luciferase infection assay, chimeric reporter virus S52/3a/R2a in Huh7-Lunet/CD81 cells; format: cell-based, HCV; settings: Hepatitis C virus, Huh-7, 72 h
# JcR-2a virus particles = experiment: Antiviral activity against early steps of HCV cell entry, synchronized JcR-2a infection (FIG. 3); format: cell-based; settings: Hepatitis C virus
# Experimental: FIG. 3: BJ486K inhibits cell entry post virus attachment. The design of the JcR-2a reporter virus construct is given at the top. Huh7-Lunet/CD81 cells were inoculated with concentrated JcR-2a particles at 4° C. for 60 minutes. Subsequently, unbound virus particles were washed away and cells were shifted to 37° C. to permit synchronized cell entry. According to the 8 experimental protocols depicted in the middle, various cell entry inhibitors including heparin (50 μg/ml), ITX5061 (10 μM), CD81-specific antibody JS-81 (2 μg/ml) and BJ486K (20 μM) were either present during inoculation (protocol 1) or were added at different time points after inoculation (protocols 2 to 8). In each case, inhibitor was present for 4 h (dashed line) and was then washed away. Efficiency of cell entry was determined 48 h post inoculation by determination of luciferase activity and is expressed relative to control infections conducted in the presence of solvent alone (DMSO). Mean values of three independent experiments each with quadruplicate measurements including the standard deviation are shown.
# JcR-2a virus particles were incubated with Huh7-Lunet/CD81 cells seeded as described above for 1 h at 4° C. to synchronize cell entry. Various inhibitors including 50 μg/ml heparin (Sigma-Aldrich), CD81-specific antibody JS-81 (2 μg/ml; Becton Dickinson), ITX 5061 (10 μM) or BJ486K (20 μM), were added during virus inoculation (protocol 1) or at indicated time points after virus inoculation (protocol 2-8). After 4 h inhibitor treatment, medium was changed to fresh culture fluid without inhibitors and the cells were lysed 48 h after inoculation as described above. Efficiency of infection was determined by luciferase assay using a tube luminometer (Lumat LB9507, Berthold, Freiburg, Germany).
# To resolve which step of HCV cell entry is inhibited by BJ486K, we assessed its antiviral activity when administered at different time points during the early phase of infection. To this end, Huh7-Lunet/CD81 cells were inoculated for one hour at 4° C. with a reporter virus prepared in the absence of drugs. […]
# [1] = system: Luc-Jc1/E2/G451R reporter viruses; experiment: Resistance test, Luc-Jc1 versus Luc-Jc1/E2/G451R reporter virus; format: cell-based, HCV; settings: Huh7-Lunet/CD81 cells, luciferase 72 h
# Experimental: FIG. 4: BJ486K is not affected by viral resistance towards a SR-BI-targeting compound, inhibits HCV of different genotypes and prevents infection of primary human hepatocytes Huh7-Lunet/CD81 cells were inoculated with Luc-Jc1 or Luc-Jc1/E2/G451R reporter viruses in the presence of increasing doses of (A) ITX 5061 or (B) BJ486K. Cells were lysed 72 h later. Luciferase activity was determined and is expressed relative to control infections conducted in the presence of DMSO. Mean values of four independent experiments each with quadruplicate measurements including the standard deviation are shown. (C) Huh7-Lunet/CD81 cells were inoculated with genotype 1a, 1b, 2b, 3a, 4a, 5a and 6a chimeric reporter viruses in the presence of increasing doses of BJ486K. Luciferase activity was determined 72 h later and is expressed relative to infections in the presence of DMSO. Mean values of three independent experiments, each with triplicate measurements, are given. (D) Primary human hepatocytes were inoculated with Con1/C3 in the presence of DMSO or increasing concentrations of BJ486K. The inhibition of HCV infection was assessed by focus-formation assay and is expressed as % inhibition relative to DMSO-treated cells. Mean values of duplicate measurements including the error range are given. […]
smiles,measurement,setting,value
"COc1ccc(-c2cc(=O)c3c(O)c(O)c(OC)cc3o2)cc1 [BJ486K, 5,6-Dihydroxy-7-methoxy-2-(4-methoxy-phenyl)-chromen-4-one]",IC50,J4 (GT1b),2.35 µM
same,IC90,J4 (GT1b),9.29 µM
same,IC50,S52 (GT3a),2.89 µM
same,IC90,S52 (GT3a),10.7 µM
same,inhibition at 20 µM,"JcR-2a virus particles; 20 min, read-out: inhibition of HCV infection",~80%
same,inhibition at 20 µM,JcR-2a virus particles; read-out: inhibition of entry,> 90%
same,antiviral activity against G451R mutant compared with wild type,[1],not changed
